The values that follow are results of earlier work, collected in patent US20230062279A1, “PHARMACEUTICAL COMPOSITIONS OF BORTEZOMIB” (EXTROVIS AG, priority 2021, published 2023).

Where two headings read alike, the source gives them in different places.

Take `CC(C)C[C@H](NC(=O)[C@H](Cc1ccccc1)NC(=O)c1cnccn1)B(O)O` [bortezomib, [(1R)-3-methyl-1-[[(2S)-1-oxo-3-phenyl-2-[(pyrazinylcarbonyl)amino]propyl]amino]butyl] boronic acid]: the degradation result reads like this: (PEG 300:Ethanol:Water (40:10:50), 25° C., 24 hours) “about 20%”; (PG:Ethanol:Water, 25° C., 8 months) 20%; (ethanol and normal saline 2:98, pH 2.8, 25° C., 1 month) 20%.
